Among the test systems are CCRF-CEM; EKVX; HCC 2998; HL-60; HT-29; K562; LOX IMVI; MOLT-4; NCI-H460; RPMI-8226; RXF 393; SF-268; SF-539; SK-MEL-2; TK-10; U-251; A498; NCI-H226; SNB-19; UO-31.
What all share (experiment): NCI tumour cell line growth inhibition, 48 h

Each structure is given as a SMILES string.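 Cultured in 96-well plates, cells were exposed to test compound for 48 hours across five concentrations. Abbreviation: GI50, concentration required for 50% inhibition of growth.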 Activity calls are given as the source filed them. Cut-off read from the data, not from the text of the source: active = GI50 up to about 1.1 µM and inactive = higher.

For the compound `CSC1=Nc2ccccc2N(C)c2c1c(-c1ccccc1)nn2C`, the GI50 in the assay on CCRF-CEM is 22.1 µM (inactive); with EKVX, 65.5 µM (inactive); in the assay on HCC 2998, 13.3 µM (inactive); in the assay on HL-60, 15.2 µM (inactive); in the assay on HT-29, 21.7 µM (inactive); with K562 it was 17.8 µM (inactive). The GI50 in the assay on LOX IMVI is 29.1 µM (inactive); in the assay on MOLT-4, 8.99 µM (inactive); in the assay on NCI-H460 it was 21.9 µM (inactive); in the assay with RPMI-8226, 12.7 µM (inactive); in the assay with RXF 393, 15.6 µM (inactive); with SF-268 it was 17 µM (inactive). Besides, the GI50 in the assay on SF-539 is 63.7 µM (inactive); in the assay with SK-MEL-2, 23.2 µM (inactive); in the assay with TK-10, 66.8 µM (inactive); in the assay on U-251 it was 31.4 µM (inactive).
For the compound `CCOP(=O)(OCC)C(Cc1c[nH]c2ccccc12)C(=O)O` (stereo unspecified), the GI50 in the assay with A498, in the assay with CCRF-CEM, in the assay with HCC 2998, in the assay on HL-60, in the assay with HT-29 and in the assay on K562 was > 100 µM (inactive) in each case. Also, the GI50 with LOX IMVI, with MOLT-4, with NCI-H226, in the assay on NCI-H460, in the assay on RPMI-8226 and with SK-MEL-2 was > 100 µM (inactive) in each case. For the same compound, the GI50 in the assay on SNB-19, in the assay with TK-10, with U-251 and with UO-31 was > 100 µM (inactive) throughout.
On to `CC(NC(=O)c1ccc(OP(=O)(OCC2=CC(=O)c3ccccc3C2=O)N(C)CCCCCl)cc1)c1ccc(OCC2CCCCC2)c(C(N)=O)c1` (stereo unspecified), for which the GI50 in the assay on CCRF-CEM is 7.71 µM (inactive); with HCC 2998, 0.0149 µM (active); with HL-60, 14.5 µM (inactive); in the assay with HT-29, 15.1 µM (inactive); in the assay with K562, 17.4 µM (inactive); in the assay with LOX IMVI, 4.27 µM (inactive). In addition, the GI50 with MOLT-4 is 12.3 µM (inactive); in the assay on NCI-H226, 11.1 µM (inactive); in the assay on NCI-H460 it was 11 µM (inactive); in the assay on RPMI-8226, 11.2 µM (inactive); in the assay on SF-268, 13.4 µM (inactive); with SF-539, 15.2 µM (inactive). Also, the GI50 in the assay with SK-MEL-2 is 14.8 µM (inactive); with SNB-19, 14.4 µM (inactive); in the assay with TK-10, 25.1 µM (inactive); in the assay on U-251, 10.6 µM (inactive); in the assay with UO-31 it was 10.2 µM (inactive).
Regarding `COc1ccc(CCC2NCCc3cc(OC)c(OC)cc32)cc1` (stereo unspecified), the GI50 in the assay on A498, with CCRF-CEM, with EKVX, in the assay with HCC 2998, with HT-29 and with K562 was > 100 µM (inactive) in each case. Moreover, the GI50 with MOLT-4, with NCI-H460, in the assay on RPMI-8226, in the assay on SF-268, in the assay on SF-539 and in the assay with SK-MEL-2 was > 100 µM (inactive) in each case. In addition, the GI50 in the assay with SNB-19 is > 100 µM (inactive); with TK-10, > 100 µM (inactive); in the assay on U-251, > 100 µM (inactive); with UO-31 it was 88.1 µM (inactive).
On to `O=c1oc2ccccc2cc1-c1cn2cc(Cl)ccc2n1`, for which the GI50 was 21.6 µM (inactive) in the assay with EKVX; 1.13 µM (inactive) in the assay on HCC 2998; 2.59 µM (inactive) with HL-60; 7.11 µM (inactive) with HT-29; 0.495 µM (active) in the assay with K562; 0.698 µM (active) in the assay on LOX IMVI. The GI50 with MOLT-4 was 0.422 µM (active); with NCI-H226, 15.6 µM (inactive); with NCI-H460, 0.488 µM (active); in the assay on RPMI-8226, 0.532 µM (active); in the assay on RXF 393 it was 2.28 µM (inactive); in the assay on SF-268, 1.44 µM (inactive). The GI50 was 1.48 µM (inactive) in the assay with SF-539; 3.27 µM (inactive) in the assay with SK-MEL-2; 0.494 µM (active) in the assay with SNB-19; 7.53 µM (inactive) in the assay with TK-10; 0.653 µM (active) with U-251; 1.32 µM (inactive) with UO-31.
As to `O=C1CSC(c2ccc(Cl)cc2Cl)N1c1ccc(Oc2ccc(Cl)cc2)c(Cl)c1` (stereo unspecified), the GI50 in the assay on CCRF-CEM was 13.5 µM (inactive); in the assay on EKVX, 23.3 µM (inactive); with HCC 2998 it was 31 µM (inactive); with HL-60 it was 16.4 µM (inactive); in the assay with HT-29, 16.4 µM (inactive); with K562, 26.2 µM (inactive). Further, the GI50 is 16.7 µM (inactive) with LOX IMVI; 24.3 µM (inactive) with MOLT-4; 22.1 µM (inactive) with NCI-H226; 27.4 µM (inactive) with NCI-H460; 13.8 µM (inactive) in the assay on RPMI-8226; 16 µM (inactive) with SF-268. For the same compound, the GI50 with SF-539 is 21.6 µM (inactive); with SK-MEL-2, 22.4 µM (inactive); in the assay with SNB-19 it was 23.6 µM (inactive); in the assay with TK-10, 51.4 µM (inactive); with U-251, 31.8 µM (inactive); in the assay on UO-31 it was 7.08 µM (inactive).
Take `Cc1c2c(n(CCN(C)C)c1C)NN=C(C#N)S2(=O)=O`: the GI50 in the assay on EKVX, in the assay with HCC 2998, with HT-29, with K562, with LOX IMVI and in the assay with MOLT-4 was > 100 µM (inactive) throughout. In addition, the GI50 in the assay on NCI-H226, with NCI-H460, in the assay on RPMI-8226, with SF-268, in the assay with SF-539 and in the assay with SK-MEL-2 was > 100 µM (inactive) throughout. Also, the GI50 in the assay on SNB-19, in the assay on TK-10, in the assay on U-251 and in the assay with UO-31 was > 100 µM (inactive) in each case.
With `Oc1ccccc1C1C=C(c2ccccc2)NC(N2CCCCC2)=C1c1nc2ccccc2[nH]1` (stereo unspecified), the GI50 in the assay with CCRF-CEM is 17.1 µM (inactive); in the assay on EKVX, 6.11 µM (inactive); in the assay with HCC 2998, 3.08 µM (inactive); with HL-60 it was 14.2 µM (inactive); with HT-29, 15.2 µM (inactive); with K562 it was 8.05 µM (inactive). The GI50 in the assay on LOX IMVI was 17 µM (inactive); in the assay on MOLT-4 it was 13.7 µM (inactive); in the assay on NCI-H226 it was 16.7 µM (inactive); with NCI-H460 it was 14.3 µM (inactive); in the assay with RPMI-8226 it was 9.57 µM (inactive); with RXF 393, 11.4 µM (inactive). The GI50 in the assay on SF-268 was 13.2 µM (inactive); in the assay with SF-539, 15.9 µM (inactive); in the assay on SNB-19, 15 µM (inactive); in the assay with TK-10, 19.9 µM (inactive); in the assay on U-251 it was 15.1 µM (inactive); in the assay on UO-31, 11.1 µM (inactive).
On to `O=c1cc(NNc2ccccc2)[nH]c(=O)[nH]1`, for which the GI50 in the assay on A498 is > 100 µM (inactive); with CCRF-CEM it was 27.5 µM (inactive); with EKVX, > 100 µM (inactive); with HCC 2998, 19.9 µM (inactive); in the assay with HL-60 it was 18.2 µM (inactive); in the assay on HT-29 it was 22.1 µM (inactive). Besides, the GI50 was 24.1 µM (inactive) with K562; 19.8 µM (inactive) in the assay on LOX IMVI; 27.2 µM (inactive) in the assay on MOLT-4; 19 µM (inactive) in the assay on NCI-H226; 27.5 µM (inactive) in the assay on NCI-H460; 11.1 µM (inactive) in the assay with RPMI-8226. The GI50 in the assay on SF-268 was 25.7 µM (inactive); with SF-539, 71.6 µM (inactive); in the assay on SNB-19, 21.1 µM (inactive); in the assay on TK-10 it was 47.3 µM (inactive); in the assay with U-251 it was 16.1 µM (inactive).
Consider `Cc1ccc([N+](=O)[O-])cc1S(=O)(=O)Nc1ccc(C2=NN(c3ccc([N+](=O)[O-])cc3[N+](=O)[O-])C(c3ccccc3)C2)cc1` (stereo unspecified), for which the GI50 in the assay on CCRF-CEM was 22.1 µM (inactive); with EKVX it was 18.6 µM (inactive); with HL-60, 20.3 µM (inactive); with HT-29, 16.1 µM (inactive); with K562, 16 µM (inactive); with LOX IMVI, 17.1 µM (inactive). Also, the GI50 in the assay on MOLT-4 was 16.8 µM (inactive); in the assay with NCI-H226, 17.4 µM (inactive); with RPMI-8226, 9.27 µM (inactive); with RXF 393 it was 14.8 µM (inactive); in the assay with SF-268, 13.1 µM (inactive); with SF-539, 20.3 µM (inactive). The GI50 in the assay with SK-MEL-2 was 13.6 µM (inactive); with SNB-19, 17.1 µM (inactive); with TK-10 it was 26.4 µM (inactive); with U-251, 12.7 µM (inactive); with UO-31 it was 14.8 µM (inactive).
As for `CCOC(=O)c1c(-c2ccccc2)c(C(OC(c2ccccc2)c2c(-c3ccccc3)c(C(=O)OCC)n3ccccc23)c2ccccc2)c2ccccn12` (stereo unspecified), the GI50 with CCRF-CEM, in the assay on EKVX, in the assay on HCC 2998, in the assay on HL-60, in the assay on HT-29 and in the assay with K562 was > 100 µM (inactive) throughout. Also, the GI50 in the assay with LOX IMVI, in the assay on MOLT-4, in the assay with NCI-H226, in the assay on NCI-H460, in the assay with RPMI-8226 and in the assay with RXF 393 was > 100 µM (inactive) each time. Further, the GI50 with SF-268, in the assay with SK-MEL-2, with SNB-19, in the assay with TK-10 and with UO-31 was > 100 µM (inactive) each time.

Values taken from ChEMBL document CHEMBL1201862, “PubChem BioAssay data set” (2004).
